From the CheMixHub ionic liquid set

Experiment: xn = mol fraction of the nth substance listed

COCCOCCO + CCCC[n+]1ccn(C)c1.F[P-](F)(F)(F)(F)F
100 kPa
Conditions	viscosity [mPa·s]
283.15 K, x2 = 0.05331	7.5
283.15 K, x2 = 0.09804	9.72
283.15 K, x2 = 0.19	15.75
283.15 K, x2 = 0.2921	25.91
283.15 K, x2 = 0.384	39.17
283.15 K, x2 = 0.4556	57.5
283.15 K, x2 = 0.5782	97.4
283.15 K, x2 = 0.6754	141.2
283.15 K, x2 = 0.7826	218.3
283.15 K, x2 = 0.8947	394
283.15 K, x2 = 0.9428	522
293.15 K, x2 = 0.04991	5.319
293.15 K, x2 = 0.09685	6.745
293.15 K, x2 = 0.1962	10.81
293.15 K, x2 = 0.291	16.42
293.15 K, x2 = 0.4	25.65
293.15 K, x2 = 0.5144	42.34
293.15 K, x2 = 0.5864	52.18
293.15 K, x2 = 0.673	67.5
293.15 K, x2 = 0.7866	103.1
293.15 K, x2 = 0.8943	187.6
293.15 K, x2 = 0.945	239.3
303.15 K, x2 = 0.05183	4.124
303.15 K, x2 = 0.09655	5.063
303.15 K, x2 = 0.1884	7.095
303.15 K, x2 = 0.2922	11.15
303.15 K, x2 = 0.3935	16.31
303.15 K, x2 = 0.5055	26.04
303.15 K, x2 = 0.5816	33.29
303.15 K, x2 = 0.6785	45.05
303.15 K, x2 = 0.7725	63.3
303.15 K, x2 = 0.9022	113.3
303.15 K, x2 = 0.9392	142.8
313.15 K, x2 = 0.04989	3.16
313.15 K, x2 = 0.09747	3.842
313.15 K, x2 = 0.1914	5.61
313.15 K, x2 = 0.2888	8.03
313.15 K, x2 = 0.3854	11.32
313.15 K, x2 = 0.4724	15.18
313.15 K, x2 = 0.5945	23.13
313.15 K, x2 = 0.6785	31.11
313.15 K, x2 = 0.7835	46.19
313.15 K, x2 = 0.8966	73.1
313.15 K, x2 = 0.9583	96.7

C[n+]1ccn(CCC(F)(F)C(F)(F)F)c1.F[P-](F)(F)(F)(F)F + CCCC[n+]1ccn(C)c1.F[P-](F)(F)(F)(F)F
Conditions	viscosity [mPa·s]
338.16 K, 100 kPa, x2 = 0.972	40.9

F[B-](F)(F)F.[Li+] + CCCC[n+]1ccn(C)c1.N#C[N-]C#N
electrical conductivity [S/m], 101 kPa
Conditions	x2 = 0.8903	x2 = 0.9069	x2 = 0.933	x2 = 0.9549	x2 = 0.9799
288.15 K	–	0.426	0.514	0.543	0.622
298.15 K	0.595	0.679	0.8	0.842	0.972
333.15 K	1.89	2.07	2.31	2.41	2.7

CC(C)(C)O + CCCC[n+]1ccn(C)c1.O=S(=O)([N-]S(=O)(=O)C(F)(F)F)C(F)(F)F
298 K, 101 kPa
Conditions	electrical conductivity [S/m]	viscosity [mPa·s]
x1 = 0.6042	0.52	–
x1 = 0.653	0.504	–
x1 = 0.8516	–	9.27
x2 = 0.0182	–	4.38

CC(C)=O + CCCC[n+]1ccn(C)c1.O=S(=O)([N-]S(=O)(=O)C(F)(F)F)C(F)(F)F
296.35 K, 100 kPa, frequency 0.01 MHz
Conditions	electrical conductivity [S/m]
x2 = 0.01616	1.1
x2 = 0.0257	2.71
x2 = 0.0419	4.22
x2 = 0.07374	5.7
x2 = 0.1478	4.72

CCCCCCCCCO + CCCC[n+]1ccn(C)c1.O=S(=O)([N-]S(=O)(=O)C(F)(F)F)C(F)(F)F
Conditions	viscosity [mPa·s]
298 K, 100 kPa, x2 = 0.9008	41.28

C[C@@H](O)[C@H](N)C(=O)O + CCCC[n+]1ccn(C)c1.[Br-] + O
viscosity [mPa·s], 101.3 kPa
Conditions	x1 = 0.0003603, x2 = 0	x1 = 0.0007221, x2 = 0	x1 = 0.001078, x2 = 0	x1 = 0.001438, x2 = 0	x1 = 0.001779, x2 = 0	x1 = 0.002158, x2 = 0	x1 = 0.002516, x2 = 0
293.15 K	1.009	1.016	1.023	1.03	1.037	1.044	1.051
298.15 K	0.897	0.904	0.911	0.918	0.925	0.933	0.94
303.15 K	0.804	0.811	0.818	0.825	0.833	0.84	0.847
308.15 K	0.727	0.734	0.741	0.748	0.755	0.763	0.77
313.15 K	0.661	0.668	0.675	0.682	0.689	0.697	0.704

F[B-](F)(F)F.[Li+] + CCCC[n+]1ccn(C)c1.[I-]
electrical conductivity [S/m], 101 kPa
Conditions	298.15 K	308.15 K	323.15 K
x1 = 0.1	–	0.0454	–
x1 = 0.2	0.0449	–	0.079

CCCCCC[n+]1ccn(C)c1.F[B-](F)(F)F + CCCN
Conditions	viscosity [mPa·s]
298.15 K, 101 kPa, x2 = 0	171.8

COP(=O)([O-])OC.Cn1cc[n+](C)c1 + CCCO
101 kPa
Conditions	viscosity [mPa·s]
293.15 K, x2 = 0.3018	116.9
298.15 K, x2 = 0	291
303.15 K, x2 = 0.1993	115.9
303.15 K, x2 = 0.5002	34.18
303.15 K, x2 = 0.5996	21.48
308.15 K, x2 = 0.1993	90.1
313.15 K, x2 = 0.5996	15.82
318.15 K, x2 = 0.098	74.8
318.15 K, x2 = 0.4	30.15
318.15 K, x2 = 0.5002	20.5
323.15 K, x2 = 0.3018	33.41
323.15 K, x2 = 0.5996	12.11
323.15 K, x2 = 0.799	4.88

COP(=O)([O-])OC.Cn1cc[n+](C)c1 + CCCO + O
100 kPa
Conditions	viscosity [mPa·s]
298.15 K, x2 = 0.249, x3 = 0.2451	90
323.15 K, x2 = 0.15, x3 = 0.1498	81
333.15 K, x2 = 0.1, x3 = 0.0998	85

CC(=O)[O-].CCCC[N+](CCCC)(CCCC)CCCC + CCCOCC(C)O
electrical conductivity [S/m], 101 kPa
Conditions	x1 = 0.006949	x1 = 0.008744	x1 = 0.02598	x1 = 0.03298	x1 = 0.06584	x1 = 0.09163	x1 = 0.1232	x1 = 0.1599	x1 = 0.2312
248.15 K	0.000652	0.000811	0.00218	0.00267	0.00439	0.00514	0.00547	0.00531	0.0042
258.15 K	0.00115	0.00143	0.00399	0.00493	0.00847	0.01022	0.01125	0.01128	0.00942
268.15 K	0.00182	0.00229	0.00661	0.00825	0.01473	0.01821	0.02062	0.02133	0.01883
278.15 K	0.00269	0.0034	0.01016	0.01277	0.02353	0.02971	0.03448	0.03666	0.03401
288.15 K	0.00374	0.00478	0.01461	0.01849	0.03502	0.04505	0.05341	0.05816	0.05632
298.15 K	0.00498	0.00635	0.01995	0.02547	0.04947	0.06468	0.07808	0.08671	0.08711
308.15 K	0.00637	0.00816	0.02625	0.03367	0.06676	0.08851	0.1086	0.1227	0.1274
313.15 K	0.0071	0.00913	0.02965	0.03815	0.07641	0.1011	0.126	0.1436	0.1513

COP(=O)([O-])OC.Cn1cc[n+](C)c1 + CCO
Conditions	viscosity [mPa·s]
293.15 K, 100 kPa, x1 = 0.1005	3.24
293.15 K, 100 kPa, x1 = 0.797	160.9
293.15 K, 101 kPa, x2 = 0.5028	37.73
293.15 K, 101 kPa, x2 = 0.6	24.37
293.15 K, 101 kPa, x2 = 0.7999	6.29
293.15 K, 101 kPa, x2 = 0.9	3.118
298.15 K, 100 kPa, x1 = 0.7009	84.1
298.15 K, 100 kPa, x1 = 0.8995	169.2
298.15 K, 101 kPa, x1 = 0.2011	5.8
298.15 K, 101 kPa, x1 = 0.5056	36.2
298.15 K, 101 kPa, x1 = 0.8017	132.7
298.15 K, 101 kPa, x2 = 0.4074	60.9
298.15 K, 101 kPa, x2 = 0.6	21.18
303.15 K, 100 kPa, x1 = 0.1005	2.62
303.15 K, 100 kPa, x1 = 0.2006	5.25
303.15 K, 100 kPa, x1 = 0.3005	9.92
303.15 K, 101 kPa, x2 = 0.0999	173.7
303.15 K, 101 kPa, x2 = 0.7999	5.01
308.15 K, 100 kPa, x1 = 0.8995	94.2
308.15 K, 100 kPa, x1 = 1	123.3
308.15 K, 101 kPa, x2 = 0.5028	21.92
308.15 K, 101 kPa, x2 = 0.6992	9.29
313.15 K, 100 kPa, x1 = 0.4031	12.72
313.15 K, 100 kPa, x1 = 0.797	54.3
313.15 K, 101 kPa, x1 = 0.2011	4.2
313.15 K, 101 kPa, x1 = 0.5056	21.2
313.15 K, 101 kPa, x1 = 0.8017	60.8
318.15 K, 100 kPa, x1 = 0.3005	7.04
318.15 K, 100 kPa, x1 = 0.7009	33.29
318.15 K, 100 kPa, x1 = 1	72.2
318.15 K, 101 kPa, x2 = 0	92.8
318.15 K, 101 kPa, x2 = 0.7999	3.702
323.15 K, 100 kPa, x1 = 0.3005	6.41
323.15 K, 100 kPa, x1 = 0.7009	27.5
323.15 K, 100 kPa, x1 = 0.797	35.24
323.15 K, 100 kPa, x1 = 0.8995	45.63
323.15 K, 101 kPa, x2 = 0.0999	63.7
323.15 K, 101 kPa, x2 = 0.9	1.819
328.15 K, 100 kPa, x1 = 0.4996	12.51
328.15 K, 100 kPa, x1 = 0.797	29.03
333.15 K, 100 kPa, x1 = 0.1005	1.36
333.15 K, 100 kPa, x1 = 0.3005	5.46
333.15 K, 100 kPa, x1 = 0.7009	19.59
333.15 K, 100 kPa, x1 = 0.8995	30.39
333.15 K, 101 kPa, x1 = 0.2011	2.9
333.15 K, 101 kPa, x1 = 0.5056	11.9
333.15 K, 101 kPa, x1 = 0.8017	28
338.15 K, 100 kPa, x1 = 0.4996	9.9
